These results are taken from patent publication US20040214900A1, “Method of treating strongyloides infections and medicaments therefor” (priority 2003, published 2004).

Like-named read-outs stand apart in the source and are kept apart here. Marks after values point to notes of the source that are not given here.

Data set [1] relates to Strongyloides stercoralis infective larvae. Briefly: microbe, parasite or virus in culture. The class given is cell-based. The note with it: for Relative activity (RA), mortality: RA of Compound (1) used as reference; for Lt50 (hours) ±95% Fiducial limits (FL), mortality time: S. stercoralis infective larvae; for mortality at 0.6 % strength: Strongyloides stercoralis, read-out: Larvae killed (mortality). How it is done:
(§1) Coproculture of about 30 g of fresh, moistened canine faeces was conducted using granular charcoal (1:1 v:v) in sealed 10 cm diameter Petri dishes. Cultures were maintained at 26° C. under semi-lighted conditions. S. stercoralis filariform larvae typically migrated to the surface of the culture and eventually into water droplets that condensed on the inner surface of the lid. Larvae appearing within 2 days were mostly those accruing from the homogonic cycle and usually occurred in insufficient numbers for bioassay. After five to eight days had elapsed free-living adult worms had effected a 50-fold increase in the population density (heterogonic cycle).
The lethality of the tested compounds was evaluated by incubating larvae obtained as in Example 1 in suspensions containing 0.6% of Compound (1) as the active ingredient (AI).
The mortality of the larvae was assessed by a dye exclusion test such as have been used successfully to indicate viability in parasitic platyhelminths. (See Halton & Arme (1971) Exp. Parasit. 30:54; Robinson & Arme (1985) Ann. Trop. Med. & Parasit. 79:17.) Similar testing was applied to S. stercoralis larvae. In these tests, use of
0.01% v/v eosin in LNSS (ELNSS) in an eosin-exclusion test indicated death of larvae in less than 10 minutes and had no effect on healthy individuals.

Data set [2] has the same test system. The data set is described as follows: Immobilisation of S. stercoralis infective larvae incubated in 0.6% AI suspensions. The class given is cell-based. The note with it: for Relative activity (RA), immobilisation / Larvae immobilized: 0.6% AI; for Relative activity (RA), immobilisation: RA of albendazole used as reference; for It50 (hours) ±95% Fiducial limits (FL), immobilisation time: 0.6% active ingredient, S. stercoralis infective larvae; for Larvae immobilized: within one hour's exposure. As to the method:
as §1
The effectiveness of the tested compounds was evaluated by incubating larvae obtained as in Example 1 in suspensions containing 0.6% of Compound (1) as the active ingredient (AI). Incubation times were 1, 2, 3, 4, 5, 6, 24, 48, 72, and 96 hours. Three (3) replicates were run in each assay, using >>100 larvae per replicate.
The anthelmintic effectiveness of Compound (1) and of three commercial anthelmintics, namely albendazole, thiabendazole, and ivermectin, was evaluated, and the results are summarized in Table 1. Compound (1) immobilized 100% of the larvae within one hour's exposure. This was also true for ivermectin. However, similar concentrations of albendazole and thiabendazole immobilized 50% of the infective larvae only after 73.7 and 78.9 hours, respectively.

In the case of `CCCSc1ccc2nc(NC(=O)OC)[nH]c2c1` [Albendazole, albendazole], in data set [1] (0.6% AI), the “Relative activity (RA), mortality” value is listed as 0.02 and the “Lt50 (hours) ±95% Fiducial limits (FL), mortality time” value (shortened to “Lt50 (hours) ±95% Fiducial limits”) is 145.3 h. Moreover, the mortality at 0.6 % strength in data set [1] (120 h) amounted to 37.4%. Also, in data set [2], the “Relative activity (RA), immobilisation” value turned out to be 1.00 and the “It50 (hours) ±95% Fiducial limits (FL), immobilisation time” value (shortened to “It50 (hours) ±95% Fiducial limits (FL)”) is 73.7 (60.4-87.0) hours. The “It50 (hours) ±95% Fiducial limits (FL)” value in data set [2] (listed as albendazole) is 73.7 h.

With `CCCCCCCCC/C=C/C=O` [Compound (1), E-2-dodecenal], in data set [1] (0.6% AI), the “Relative activity (RA), mortality” value is 1.00* and the “Lt50 (hours) ±95% Fiducial limits” value was 2.2 h. Moreover, in data set [1] (0.6% AI, listed as Compound(1)), the “Lt50 (hours) ±95% Fiducial limits” value was 2.2 (1.2-3.3) hours. Also, the “Fold increase in lethal activity over albendazole” value in data set [1] (Lt50 basis, 0.6% AI, versus albendazole) is recorded as 66.1 fold. The “Fold increase in lethal activity over ivermectin” value in data set [1] (Lt50 basis, 0.6% AI, versus ivermectin) turned out to be 7.1 fold. The “Fold increase in lethal activity over thiabendazole” value in data set [1] (Lt50 basis, 0.6% AI, versus thiabendazole) was found to be 81.3 fold. Also, the mortality at 0.6 % strength in data set [1] (6 h, after six hours, 0.6% AI) amounted to 90.8%. In data set [2], the “Relative activity (RA), immobilisation” value was more than 1.00; the “It50 (hours) ±95% Fiducial limits (FL)” value is <1* hours; the Larvae immobilized was determined as 100%.

For `c1ccc2[nH]c(-c3cscn3)nc2c1` [Thiabendazole], in data set [1] (0.6% AI), the “Relative activity (RA), mortality” value worked out at 0.01 and the “Lt50 (hours) ±95% Fiducial limits” value is 178.9 h. Besides, the mortality at 0.6 % strength in data set [1] (120 h) was found to be 14.1%. Further, in data set [2], the “Relative activity (RA), immobilisation” value was found to be 0.93 and the “It50 (hours) ±95% Fiducial limits (FL)” value is on record as 78.9 (65.5-92.8) hours. In addition, in data set [2] (listed as thiabendazole), the “It50 (hours) ±95% Fiducial limits (FL)” value is 78.9 h.

Take ivermectin: in data set [1] (0.6% AI), the “Relative activity (RA), mortality” value is reported as 0.14 and the “Lt50 (hours) ±95% Fiducial limits” value is given as 15.7 (12.5-18.1) hours. The “Lt50 (hours) ±95% Fiducial limits” value in data set [1] (0.6% AI, listed as ivermectin) is 15.7 h. The “Larvae killed (mortality)” value in data set [1] (after 24 hours, 0.6% AI) is 89.0%. Moreover, in data set [2], the “Relative activity (RA), immobilisation” value is reported as more than 1.00; the “It50 (hours) ±95% Fiducial limits (FL)” value is <1* hours; the Larvae immobilized amounted to 100%.

Usually mortality stands for the share of the test organisms that died.
